Laboratory results: ChEMBL document CHEMBL4028891, “X-ray Characterization and Structure-Based Optimization of Striatal-Enriched Protein Tyrosine Phosphatase Inhibitors” (J Med Chem, 2017)

Target: T1, Tyrosine-protein phosphatase non-receptor type 5 (Homo sapiens, UniProt P54829)
T1 sequence (P54829 whole entry): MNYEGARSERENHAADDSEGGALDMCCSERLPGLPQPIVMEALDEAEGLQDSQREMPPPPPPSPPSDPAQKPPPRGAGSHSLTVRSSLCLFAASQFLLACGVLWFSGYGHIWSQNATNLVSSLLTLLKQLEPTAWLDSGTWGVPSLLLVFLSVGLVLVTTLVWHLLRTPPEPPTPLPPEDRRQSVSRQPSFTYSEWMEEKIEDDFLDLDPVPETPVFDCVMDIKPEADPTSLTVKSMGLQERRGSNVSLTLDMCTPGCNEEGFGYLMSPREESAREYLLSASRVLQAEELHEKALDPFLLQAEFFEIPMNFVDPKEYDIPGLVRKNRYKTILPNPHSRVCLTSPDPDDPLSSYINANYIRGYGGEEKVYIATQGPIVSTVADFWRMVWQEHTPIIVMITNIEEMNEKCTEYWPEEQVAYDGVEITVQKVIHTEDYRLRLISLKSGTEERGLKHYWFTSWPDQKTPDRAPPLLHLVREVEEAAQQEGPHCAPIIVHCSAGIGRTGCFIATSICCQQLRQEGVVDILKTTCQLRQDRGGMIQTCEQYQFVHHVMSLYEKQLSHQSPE
Assay: Binding affinity to 6His-tagged STEP phosphatase domain (258 to 539 residues) (unknown origin) expressed in Escherichia coli BL21 Gold (DE3) after 90 secs at 30 degC by isothermal titration calorimetry assay

| Kd [µM] | SMILES |
| --- | --- |
| 27.2 | O=P(O)(O)[C@H](O)c1ccc(-c2cccc([C@@H](O)c3ccc(Cl)c(Cl)c3)c2)cc1 |
| 31.4 | O=P(O)(O)[C@H](O)c1ccc(-c2cccc([C@H](O)c3ccc(Cl)c(Cl)c3)c2)cc1 |
| 70.4 | O=P(O)(O)C(F)(F)c1cccc(-c2cccc(C3CCCCC3)c2O)c1 |
